Test results taken from patent publication US20110213038A1, “CONTROL OF BED BUGS” (priority 2008, published 2011).

Columns and labels:
[1] = system: adult bed bugs Cimex lectularius; experiment: Vapor exposure of unconcealed bed bugs in sealed jar, 24 hour mortality; assay type: in vivo; settings: one drop (about 25-30 mg) on filter paper in sealed 16 oz. glass jar
Method: (§1) This test was undertaken employing unconcealed bed bugs. One drop (about 25-30 mg) of a naturally occurring aromatic test compound was applied to a filter paper and placed with a 16 oz. glass jar (3½ inches diameter×3⅞ inches high) containing ten adult bed bugs Cimex lectularius of both sexes. The jar was then sealed with a plastic lid. Five replicates of ten bed bugs were exposed to each of the test compounds. The test formulations were assessed for 24 hour mortality. A control jar with no test compound was also included in the testing.
The test was repeated with several other test compounds in the same manner: […]

[2] = system: adult bed bugs Cimex lectularius; experiment: Vapor exposure of concealed bed bugs (folded mattress ticking) in sealed jar, 72 hour mortality; assay type: in vivo; settings: one drop (about 25-30 mg) on filter paper in sealed 16 oz. glass jar
Method: as §1, with “conducted using concealed” for “undertaken employing unconcealed”, “sexes. A piece of folded mattress ticking was also placed in the jar to allow the bed bugs a place to hide.” for “sexes.”, “Mortality was” for “The test formulations were”, “at 72 hours.” for “for 24 hour mortality.”, “testing. The mortality results were as follows.” for “testing.”

[3] = repeated test with other compounds

C=C(C)[C@H]1CC=C(C)C(=O)C1 [d-Carvone]
24 hr Mean Mortality % [1, 3]: 47.8%

C=C[C@@](C)(O)CCC=C(C)C [d-Linalool]
24 hr Mean Mortality % [1, 3]: 92.0%

l-Carvone
24 hr Mean Mortality % ([1]; first test): 73.5%
72 hr Mean Mortality % [2]: 46.7%

CC(C)[C@@H]1CC[C@@H](C)C(=O)C1 [Tetrahydrocarvone]
24 hr Mean Mortality % [1, 3]: 58.1%
72 hr Mean Mortality % [2]: 16.7%

C=C[C@](C)(O)CCC=C(C)C [l-Linalool]
24 hr Mean Mortality % ([1]; first test): 100.0%
72 hr Mean Mortality % [2]: 68%

CC(O)c1ccccc1 (stereo not shown) [Styralyl alcohol]
24 hr Mean Mortality % [1, 3]: 89.8%
72 hr Mean Mortality % [2]: 91.8%
